Patent publication US20250034116A1, “1,4-DIHETEROCYCLIC SUBSTITUTED AROMATIC RING OR AROMATIC HETEROCYCLIC COMPOUND AND USE THEREOF” (BeBetter Med Inc., priority 2022, published 2025)

Assays:
20-HETE = assay: Experiment 5: level of 20-HETE in DIO mouse model; assay type: in vivo, Male C57BL/6J mice; conditions: DIO mice, single oral dose 50 mg/kg, 8 hours; most pronounced in the liver and kidneys
Method: Experiment 5 was to investigate the effect of compound 2 on regulating the level of 20-HETE in a diet-induced obesity (DIO) mouse model. Male C57BL/6J mice were purchased from Guangdong Vital River Laboratory Animal Technology Co., Ltd. and housed in a barrier system animal facility. After 24 weeks of high-fat diet (HFD) induction, compound 2 was administered at a dose of 50 mg/kg once, and samples were collected after 8 hours to detect the level of 20-HETE. A solvent control group was also set up simultaneously, with 3 animals per group.

[1] = tested on: diet-induced obesity (DIO) mouse model; assay: Experiment 2: compound 2 and 4, weight loss and blood glucose lowering in DIO mouse model; assay type: in vivo, Male C57BL/6J mice
Text: Experiment 2 was to study the effects of compound 2 and 4 on weight loss and blood glucose lowering in a diet-induced obesity (DIO) mouse model. Male C57BL/6J mice were purchased from Zhuhai BST Biotechnology Co., Ltd. and housed in a barrier system animal facility. Animals were randomly divided into 4 groups: normal control group, DIO model control group, DIO model compound 2 treatment group, and DIO model compound 4 treatment group, with 4-5 animals per group. The model control group and treatment groups were first fed with high-fat diet (HFD) for 9 weeks (day 63), and then the treatment groups were orally administered with compound 2 or compound 4 at a dose of 50 mg/kg once daily for 4 consecutive weeks, while continuing to receive HFD. Animal weights were measured weekly, and on the last day of treatment, they were fasted overnight but allowed access to water before an oral glucose tolerance test (OGTT).

[2] = tested on: diet-induced obesity (DIO) mouse model; assay: Experiment 3: compound 2, weight loss and blood glucose lowering in DIO mouse model; assay type: in vivo, Male C57BL/6J mice
Text: Experiment 3 was to study the effects of compound 2 on weight loss and blood glucose lowering in a diet-induced obesity (DIO) mouse model. Male C57BL/6J mice were purchased from Zhuhai BST Biotechnology Co., Ltd. and housed in a barrier system animal facility. Animals were randomly divided into 3 groups: normal control group, DIO model control group, and DIO model compound 2 treatment group, with 6-8 animals per group. The model control group and treatment group were first fed with high-fat diet (HFD) for 9 weeks (day 63), and then the treatment group was orally administered with compound 2 at a dose of 30 mg/kg once daily for 8 consecutive weeks, while continuing to receive HFD. Animal weights were measured weekly, and on the last day of treatment, they were fasted overnight but allowed access to water before an oral glucose tolerance test (OGTT).

[3] = tested on: CYP enzymes in human liver microsomes (HLM); assay: Inhibition of 20-HETE production in human liver microsomes (HLM); assay type: biochemical
Summary of the method: (§1)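 Liver microsomes (human or mouse) or recombinant CYP4F2 or CYP4A11 in potassium phosphate buffer mixed with compound, then with 400 μM substrate solution (stock). After 10 min preincubation at 37 °C, reaction started with 6 mM NADPH solution (stock) and run 25 min at 37 °C. 20-HETE formation quantified by LC-MS/MS; IC50 from a four-parameter Hill fit, with percent inhibition also reported at 1000, 500 or 100 nM.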

[4] = Pharmacokinetic (PK) experiment, oral administration in rats; assay type: in vivo, Male SD rats; conditions: 20 mg/kg
Summary of the method: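 Fasted male SD rats (180-250 g) received 20 mg/kg orally in 30% sulfobutylether-β-cyclodextrin. Tail-vein blood sampled 15 min to 24 h post-dose into K2-EDTA; plasma protein-precipitated with acetonitrile containing internal standard and analysed by LC-MS/MS.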

[5] = tested on: CYP enzymes in mouse liver microsomes (MLM); assay: Inhibition of 20-HETE production in mouse liver microsomes (MLM); assay type: biochemical
Summary of the method: as §1

[6] = tested on: CYP enzymes in rat liver microsomes (RLM); assay: Inhibition of 20-HETE production in rat liver microsomes (RLM); assay type: biochemical
Summary of the method: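 Test compounds were dissolved in DMSO, diluted in acetonitrile/DMSO (3:1), and 2 μl was mixed with 100 μl potassium phosphate buffer containing rat liver microsomes in a 96-well plate. Duplicate 30 μl aliquots received 15 μl of 400 μM substrate, were preheated at 37° C. for 10 minutes, then started with 15 μl of 6 mM NADPH for 25 minutes. LC-MS/MS measured 20-HETE formation.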

[7] = target: recombinant CYP4A11 (rCYP4A11) (Homo sapiens (Human), UniProt Q02928); assay: Inhibition of 20-HETE production by recombinant CYP4A11; assay type: biochemical
Chain of recombinant CYP4A11 (rCYP4A11) (Q02928 5-519): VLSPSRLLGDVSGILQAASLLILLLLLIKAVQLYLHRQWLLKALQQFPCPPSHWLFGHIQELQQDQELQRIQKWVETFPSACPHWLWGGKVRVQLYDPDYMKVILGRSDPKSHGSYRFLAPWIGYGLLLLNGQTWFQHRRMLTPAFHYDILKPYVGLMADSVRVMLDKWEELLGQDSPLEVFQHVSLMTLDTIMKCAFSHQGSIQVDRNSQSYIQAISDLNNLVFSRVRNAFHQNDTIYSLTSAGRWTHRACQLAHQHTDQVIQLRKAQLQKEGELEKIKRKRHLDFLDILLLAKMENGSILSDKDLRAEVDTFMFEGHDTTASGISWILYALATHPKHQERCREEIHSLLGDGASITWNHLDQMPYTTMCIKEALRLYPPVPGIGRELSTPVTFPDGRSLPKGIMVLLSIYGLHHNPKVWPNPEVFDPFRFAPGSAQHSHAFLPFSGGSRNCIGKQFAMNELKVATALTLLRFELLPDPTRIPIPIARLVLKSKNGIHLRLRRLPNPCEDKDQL
Summary of the method: as §1

[8] = target: recombinant CYP4F2 (rCYP4F2) (Homo sapiens (Human), UniProt P78329); assay: Inhibition of 20-HETE production by recombinant CYP4F2; assay type: biochemical
Chain of recombinant CYP4F2 (rCYP4F2) (P78329 5-520): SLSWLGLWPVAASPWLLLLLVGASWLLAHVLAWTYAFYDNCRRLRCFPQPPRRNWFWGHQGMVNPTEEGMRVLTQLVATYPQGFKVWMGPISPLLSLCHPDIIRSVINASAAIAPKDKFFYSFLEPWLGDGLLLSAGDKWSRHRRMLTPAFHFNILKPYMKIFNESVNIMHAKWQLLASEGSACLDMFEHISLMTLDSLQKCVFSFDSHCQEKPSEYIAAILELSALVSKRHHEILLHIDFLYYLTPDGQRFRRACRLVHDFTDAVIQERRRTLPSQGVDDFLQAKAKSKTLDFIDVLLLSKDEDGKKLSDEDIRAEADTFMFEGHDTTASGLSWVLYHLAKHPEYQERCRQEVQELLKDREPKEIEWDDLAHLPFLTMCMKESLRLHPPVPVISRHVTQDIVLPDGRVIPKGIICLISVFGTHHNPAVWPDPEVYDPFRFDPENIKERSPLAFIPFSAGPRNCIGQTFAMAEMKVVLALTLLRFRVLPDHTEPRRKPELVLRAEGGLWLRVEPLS
Summary of the method: as §1

[9] = 50 mg/kg orally once daily for 4 weeks, DIO mice
[10] = 30 mg/kg orally once daily for 8 weeks, DIO mice

IC50 [3]: 28.7 nM
HLM (% inh @ 500 nM) ([3]; 500 nM): 79.50%
AUC(0-inf) ([4]; male, SD, rat, plasma): 120 µg·h/mL
Cmax ([4]; male, SD, rat, plasma): 10100 ng/mL
Tmax ([4]; male, SD, rat, plasma): 3.33 h
half-life ([4]; male, SD, rat, plasma): 5.2 h
AUC(0-t) ([4]; male, SD, rat, plasma, read-out: AUC0-24): 115 µg·h/mL
IC50 [5]: 1340 nM
IC50 [6]: 103 nM
RLM (% inh @ 500 nM) ([6]; 500 nM): 59.38%
IC50 [7]: 33.2 nM
IC50 [8]: 15.8 nM
SMILES: O=C1CCCN1CC1CCN(c2ccc(-c3cn[nH]c3)cc2F)CC1 [Compound 2, 1-((1-(2-fluoro-4-(1H-pyrazol-4-yl)phenyl)piperidin-4-yl)methyl)pyrrolidin-2-one]
20-HETE levels in the liver, kidneys, and brain tissues compared to the solvent control group (20-HETE): varying degrees of decrease
fasting blood glucose [1, 9]: inhibit the increase in fasting blood glucose
glucose metabolism (OGTT) [1, 9]: enhance glucose metabolism
body weight decrease, of the pre-administration weight ([1]; 50 mg/kg orally once daily, first week of administration, after 9 weeks HFD): 12%-16%
fasting blood glucose [2, 10]: inhibit the increase in fasting blood glucose
glucose metabolism (OGTT) [2, 10]: enhance their glucose metabolism
food intake compared to the DIO model control group ([2]; 30 mg/kg orally once daily, after 2 weeks): no difference
difference in weight gain relative to the DIO model control group ([2]; 30 mg/kg orally once daily, after 8 weeks): 47.1%
body weight decrease, of pre-administration weight ([2]; 30 mg/kg orally once daily, after 8 weeks, DIO mice): 20.8%
food intake ([2]; 30 mg/kg orally once daily, first 2 weeks of administration): decreased
absorption and blood exposure after oral administration (in words) [4]: well absorbed and exhibit high blood exposure
